The text below walks through data of PubChem BioAssay AID328 (DTP/NCI, 2004).

Values joined by “and” are separate entries in the source; they are usually repeats but may differ in a detail not shown here. Equal values may be shown once. Inconclusive results and toxic doses are left out.

This experiment relates to BDF1 mice, P388 leukemia ip, median survival T/C. The experiment is described as follows: NCI In Vivo Anticancer Drug Screen. Data for tumor model P388 Leukemia (intraperitoneal) in B6D2F1 (BDF1) mice. The settings on record: endpoint: median survival time, higher = longer survival. The method, boiled down: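 Compound-treated tumour-bearing mice were compared with vehicle-treated controls. Survival was recorded, and the value is the treated-group measurement divided by the control-group measurement (T/C).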

The mark [1] stands for this setting: dose: 100.0 mg/kg/injection, schedule: Q04DX003 (ip), vehicle: saline.
[2] abbreviates: dose: 200.0 mg/kg/injection, schedule: Q04DX003 (ip), vehicle: saline.
The mark [3] stands for this setting: dose: 12.5 mg/kg/injection, schedule: Q01DX009 (ip), vehicle: saline with Tween-80.
Setting [4] is: dose: 25.0 mg/kg/injection, schedule: Q01DX009 (ip), vehicle: saline with Tween-80.
The mark [5] stands for this setting: dose: 50.0 mg/kg/injection, schedule: Q01DX009 (ip), vehicle: saline with Tween-80.
Where [6] appears, read: dose: 100.0 mg/kg/injection, schedule: Q01DX009 (ip), vehicle: saline with Tween-80.
[7] abbreviates: dose: 200.0 mg/kg/injection, schedule: Q01DX009 (ip), vehicle: saline with Tween-80.
The mark [8] stands for this setting: dose: 100.0 mg/kg/injection, schedule: Q04DX003 (ip), vehicle: Klucel (hydroxypropylcellulose) (HPC).
Where [9] appears, read: dose: 200.0 mg/kg/injection, schedule: Q01DX009 (ip), vehicle: Klucel (hydroxypropylcellulose) (HPC).
The mark [10] stands for this setting: dose: 200.0 mg/kg/injection, schedule: Q04DX003 (ip), vehicle: Klucel (hydroxypropylcellulose) (HPC).
Setting [11] is: dose: 400.0 mg/kg/injection, schedule: Q04DX003 (ip), vehicle: Klucel (hydroxypropylcellulose) (HPC).
[12] abbreviates: dose: 75.0 mg/kg/injection, schedule: Q01DX009 (ip), vehicle: Klucel (hydroxypropylcellulose) (HPC).
Where [13] appears, read: dose: 100.0 mg/kg/injection, schedule: Q01DX001 (ip), vehicle: saline with Tween-80.
Setting [14] is: dose: 200.0 mg/kg/injection, schedule: Q01DX001 (ip), vehicle: saline with Tween-80.

Regarding `COc1ccc(OC(=O)N2C=Cc3ccccc3C2C#N)cc1` (stereo unspecified), the T/C was 95 % of control (dose: 50.0 mg/kg/injection, schedule: Q04DX003 (ip), vehicle: saline); 100 % of control under setting [1]; 112 % of control under setting [2].

As for `COc1ccc(C(=O)CC(c2ccc(OC)c(OC)c2)c2c(O)c3ccccc3oc2=O)cc1OC` (stereo unspecified), the T/C reads like this: (dose: 12.5 mg/kg/injection, schedule: Q01DX009 (ip), vehicle: saline) 101 % of control; (dose: 25.0 mg/kg/injection, schedule: Q01DX009 (ip), vehicle: saline) 111 % of control; (dose: 50.0 mg/kg/injection, schedule: Q01DX009 (ip), vehicle: saline) 101 % of control; (dose: 100.0 mg/kg/injection, schedule: Q01DX009 (ip), vehicle: saline) 109 % of control; (dose: 200.0 mg/kg/injection, schedule: Q01DX009 (ip), vehicle: saline) 93 % of control.

In the case of `Oc1ccc2ccccc2c1/C=N\Sc1ccc(Cl)cc1`, the T/C is, setting by setting: under setting [3], 90 % of control; under setting [4], 96 % of control; under setting [5], 106 % of control.

Turning to `C#CC1(OCC(O)CCl)CCCCC1` (stereo unspecified), the T/C runs as follows: under setting [6], 116 % of control; under setting [1], 110 % of control; under setting [7], 104 % of control; under setting [2], 120 % of control; (dose: 400.0 mg/kg/injection, schedule: Q04DX003 (ip), vehicle: saline) 100 % of control.

Consider `C/C(=N\NC(=S)N(C)C)c1ccccn1`, for which the T/C runs as follows: (dose: 1.56 mg/kg/injection, schedule: Q01DX009 (ip), vehicle: saline with Tween-80) 105 % of control; (dose: 3.12 mg/kg/injection, schedule: Q01DX009 (ip), vehicle: saline with Tween-80) 100 % of control.

Turning to `COc1ccc(CCO)cc1OC`, the T/C runs as follows: (dose: 50.0 mg/kg/injection, schedule: Q01DX009 (ip), vehicle: water) 97 % of control; (dose: 100.0 mg/kg/injection, schedule: Q01DX009 (ip), vehicle: water) 100 % of control; (dose: 100.0 mg/kg/injection, schedule: Q04DX003 (ip), vehicle: water) 99 % of control; (dose: 200.0 mg/kg/injection, schedule: Q01DX009 (ip), vehicle: water) 96 % of control; (dose: 200.0 mg/kg/injection, schedule: Q04DX003 (ip), vehicle: water) 106 % of control; (dose: 400.0 mg/kg/injection, schedule: Q01DX009 (ip), vehicle: water) 96 % of control.

With `C1=CC=CN(c2ccccc2)C=C1`, the T/C by setting is: (dose: 50.0 mg/kg/injection, schedule: Q01DX009 (ip), vehicle: Klucel (hydroxypropylcellulose) (HPC)) 90 % of control; (dose: 100.0 mg/kg/injection, schedule: Q01DX009 (ip), vehicle: Klucel (hydroxypropylcellulose) (HPC)) 105 % of control; under setting [8], 95 % of control; under setting [9], 105 % of control; under setting [10], 91 % of control; under setting [11], 100 % of control.

Take `Nc1ncnc2c1ncn2C1OC(CO)CC1O` (stereo unspecified): the T/C by setting is: (dose: 4.68 mg/kg/injection, schedule: Q01DX009 (ip), vehicle: Klucel (hydroxypropylcellulose) (HPC)) 108 % of control; (dose: 9.37 mg/kg/injection, schedule: Q01DX009 (ip), vehicle: Klucel (hydroxypropylcellulose) (HPC)) 106 % of control; (dose: 18.75 mg/kg/injection, schedule: Q01DX009 (ip), vehicle: Klucel (hydroxypropylcellulose) (HPC)) 106 % of control; (dose: 37.5 mg/kg/injection, schedule: Q01DX009 (ip), vehicle: Klucel (hydroxypropylcellulose) (HPC)) 111 % of control; under setting [12], 106 % of control; (dose: 150.0 mg/kg/injection, schedule: Q01DX009 (ip), vehicle: Klucel (hydroxypropylcellulose) (HPC)) 106 % of control.

As for `C1=CC2C3CC(OCCOC4CC5CC4C4CC=CC54)C(C3)C2C1` (stereo unspecified), the T/C reads like this: (dose: 100.0 mg/kg/injection, schedule: Q04DX003 (ip), vehicle: saline with Tween-80) 115 % of control; (dose: 200.0 mg/kg/injection, schedule: Q04DX003 (ip), vehicle: saline with Tween-80) 115 % of control; (dose: 400.0 mg/kg/injection, schedule: Q04DX003 (ip), vehicle: saline with Tween-80) 120 % of control.

Turning to `CN(C)C(=S)SCC(=O)NC(CO)C(=O)O` (stereo unspecified), the T/C reads like this: under setting [5], 98 % of control; under setting [6], 98 % of control; under setting [7], 89 % of control.

Turning to `C[Si]1(C)CCCSC1`, the T/C is 89 % of control under setting [3], 91 % of control under setting [4], 93 % of control under setting [5] and 103 % of control under setting [6].

In the case of `CCCCCN(C)/N=N/c1nc[nH]c1C(N)=O`, the T/C by setting is: under setting [7], 100 % of control; (dose: 264.0 mg/kg/injection, schedule: Q04DX003 (ip), vehicle: Klucel (hydroxypropylcellulose) (HPC)) 90 % of control; under setting [11], 86 % of control.

In the case of `CCCCSC#N`, the T/C was 94 % of control (dose: 6.25 mg/kg/injection, schedule: Q01DX001 (ip), vehicle: saline) and 100 % of control (dose: 12.5 mg/kg/injection, schedule: Q01DX001 (ip), vehicle: saline).

With `CC1=Nc2ccccc2/C1=C\c1c(C)[nH]c2ccccc12`, the T/C is 109 % of control (dose: 5.5 mg/kg/injection, schedule: Q01DX009 (ip), vehicle: Klucel (hydroxypropylcellulose) (HPC)); 118 % of control (dose: 8.2 mg/kg/injection, schedule: Q01DX009 (ip), vehicle: Klucel (hydroxypropylcellulose) (HPC)); 161 % of control (dose: 12.5 mg/kg/injection, schedule: Q01DX009 (ip), vehicle: Klucel (hydroxypropylcellulose) (HPC)); 103 % of control and 109 % of control (dose: 33.0 mg/kg/injection, schedule: Q01DX009 (ip), vehicle: Klucel (hydroxypropylcellulose) (HPC)); 96 % of control and 113 % of control under setting [12]; 154 % of control under setting [9].

With `CCOC(=O)C(OCC)P(=O)(OCC)OCC` (stereo unspecified), the T/C is, setting by setting: (dose: 25.0 mg/kg/injection, schedule: Q04DX003 (ip), vehicle: Klucel (hydroxypropylcellulose) (HPC)) 93 % of control; (dose: 50.0 mg/kg/injection, schedule: Q04DX003 (ip), vehicle: Klucel (hydroxypropylcellulose) (HPC)) 97 % of control; under setting [8], 91 % of control; under setting [10], 90 % of control; under setting [11], 93 % of control.

For the compound `COc1ccc2c(c1)C1CN(Cc3ccccc31)C2` (stereo unspecified), the T/C (dose: 50.0 mg/kg/injection, schedule: Q01DX001 (ip), vehicle: saline with Tween-80) is 96 % of control; the T/C under setting [13] is 99 % of control; the T/C under setting [14] was 89 % of control.

Turning to `N#CC(=Nc1cc(Cl)cc(Cl)c1)C1=C(O)c2ccccc2C1=O`, the T/C by setting is: (dose: 50.0 mg/kg/injection, schedule: Q01DX005 (ip), vehicle: saline with Tween-80) 101 % of control; (dose: 100.0 mg/kg/injection, schedule: Q01DX005 (ip), vehicle: saline with Tween-80) 111 % of control; (dose: 200.0 mg/kg/injection, schedule: Q01DX005 (ip), vehicle: saline with Tween-80) 101 % of control.

As to `CC(C)CNC(c1ccc2c(c1)OCO2)C(O)c1ccc2c(c1)OCO2` (stereo unspecified), the T/C is, setting by setting: under setting [13], 100 % of control; under setting [14], 115 % of control; (dose: 400.0 mg/kg/injection, schedule: Q01DX001 (ip), vehicle: saline with Tween-80) 108 % of control.

Consider `c1ccc(OCCC[P+](c2ccccc2)(c2ccccc2)c2ccccc2)cc1`, for which the T/C (dose: 0.78 mg/kg/injection, schedule: Q01DX010 (ip), vehicle: saline) is 90 % of control; the T/C (dose: 1.56 mg/kg/injection, schedule: Q01DX010 (ip), vehicle: saline) was 100 % of control; the T/C (dose: 3.13 mg/kg/injection, schedule: Q01DX010 (ip), vehicle: saline) is 109 % of control; the T/C (dose: 6.25 mg/kg/injection, schedule: Q01DX010 (ip), vehicle: saline) is 118 % of control; the T/C (dose: 12.5 mg/kg/injection, schedule: Q01DX010 (ip), vehicle: carboxymethylcellulose (CMC)) is 100 % of control.
